Earlier results as cited in US20220079889A1, “USE OF CANNABANOIDS IN THE TREATMENT OF PROLIFERATIVE DIABETIC RETINOPATHY” (VERDANT PHARMACEUTICALS, LLC, priority 2020, published 2022).

Settings: typical value; cited from earlier work

Compound	time of persistence in the target neovasculature
C=Cc1c(C)c2cc3nc(c(CC(=O)N[C@@H](CC(=O)O)C(=O)O)c4[nH]c(cc5nc(cc1[nH]2)C(C)=C5CC)c(C)c4C(=O)O)[C@@H](CCC(=O)O)[C@@H]3C [N-aspartyl chlorin e6]	about twenty
benzoporphyrin derivative [bcnzoporphyrin derivative]	about fifty
CC(=O)[O-].CC(=O)[O-].CCc1c(CC)c2cc3nc(cnc4cc(OCCOCCOCCOC)c(OCCOCCOCCOC)cc4ncc4nc(cc1[n-]2)C(CCCO)=C4C)C(C)=C3CCCO.O.[Lu+3] [lutetium texaphyrin]	about twenty
